Results taken from patent US9701711B2, “Modulators of protease activated receptors” (THE UNIVERSITY OF QUEENSLAND, priority 2010, dated 2017).
Where “and” joins values, the source holds several entries; their conditions need not be identical. Identical values can stand only once. Like-named read-outs stand apart in the source and are kept apart here. One block for each molecule: values may come before it.

Columns and labels:
PAR2 [1] = molecular target: T1, PAR2 (Homo sapiens, UniProt P55085); test: PAR2 activation (agonist) by intracellular calcium mobilisation in HT29 cells; assay type: cell-based; set-up: Agonists of Ca^2+ release in HT29 cells; endogenous in cells; host or cells: HT29 (human cell line, cultured per ATCC information); settings: for EC50: Fluo-3 fluorescence
T1 sequence (P55085 26-397): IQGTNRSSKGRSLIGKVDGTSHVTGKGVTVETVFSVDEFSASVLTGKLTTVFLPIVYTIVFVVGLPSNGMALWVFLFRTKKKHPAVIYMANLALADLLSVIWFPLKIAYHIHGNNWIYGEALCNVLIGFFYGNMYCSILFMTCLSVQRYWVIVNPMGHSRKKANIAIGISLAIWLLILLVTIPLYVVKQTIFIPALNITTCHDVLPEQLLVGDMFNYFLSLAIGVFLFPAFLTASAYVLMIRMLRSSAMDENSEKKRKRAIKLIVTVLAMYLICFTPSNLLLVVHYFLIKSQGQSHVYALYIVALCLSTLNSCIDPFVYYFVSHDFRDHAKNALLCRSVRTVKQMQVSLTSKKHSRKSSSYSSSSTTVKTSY
Text: (§1) The ability of the compounds of the present invention to activate PAR2 may be assessed via calcium mobilisation assays. It is appreciated that compounds that activate the release of intracellular calcium from one type of cell are agonists or partial agonists, while those that inhibit such release may be antagonists. […] The general assay protocols may vary slightly depending on the chosen cell line. In general, during cell culture passage, cell dissociation solution (CDS, Sigma Aldrich) is used to replace trypsin to dissociate cells from surface. Lipopolysaccharide (LPS) and trypsin are purchased from Sigma Aldrich. […] ELISA sets are purchased from BD Pharmingen (San Jose, Calif.) and cytokine array kits are purchased from RayBiotecho (Norcross, Ga.).
(§2) Cells are seeded overnight in 96-well black walled, clear bottomed, plate at approximately 2×10^4 to 4×10^5 cells per well. […] The cells are then washed twice with HBSS and transferred to a Polarstar spectrotluorimeter (BMG, Durham N.C.).
HBSS is prepared in-house and all other reagents are purchased from Invitrogen, Carlsbad. Plates are supplied by DKSH, Zurich. Calcimycin (A23187, Invitrogen) is used to measure maximum fluorescence, with individual results normalized accordingly.
Three different concentrations of 6 added to HT29 cells at room temperature. Duplicate measurements were made for each data point, accordingly, each data point represents mean±SEM. Net changes in fluorescence were calculated as a percentage relative to the maximum response given by 100 μM of the PAR2 agonist 2f-LIGRLO-NH2.

PAR2 [2] = molecular target: T1, PAR2; settings: cited from earlier work
PAR2 [3] = molecular target: T2, PAR2 (Rattus norvegicus, UniProt Q63645); test: Acute inflammatory model: PAR2-induced paw oedema; assay type: in vivo; settings: Wistar rat, 10 mg/kg p.o. in olive oil, n=3; agonist 350 μg/paw 2 h after oral dose
T2 construct: from tissue; host or cells: paw of living male Wistar rats
T2 sequence (Q63645 26-397): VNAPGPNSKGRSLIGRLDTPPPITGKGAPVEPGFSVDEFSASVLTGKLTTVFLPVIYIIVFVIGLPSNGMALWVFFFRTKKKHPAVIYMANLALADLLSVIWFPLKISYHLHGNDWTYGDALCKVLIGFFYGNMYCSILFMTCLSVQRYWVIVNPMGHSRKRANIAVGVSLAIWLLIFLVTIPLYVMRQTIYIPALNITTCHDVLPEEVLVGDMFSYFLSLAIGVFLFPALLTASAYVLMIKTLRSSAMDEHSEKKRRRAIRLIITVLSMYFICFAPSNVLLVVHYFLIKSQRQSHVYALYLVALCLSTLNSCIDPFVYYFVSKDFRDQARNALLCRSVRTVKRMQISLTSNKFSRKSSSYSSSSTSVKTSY
Procedure: FIG. 9. Graphical representation of the ability of PAR2 antagonists 18, 30, 42, 44 to attenuate experimental paw oedema.
The methods used are based on those previously described (Kelso. E. B., et al. Arthritis Rheum 2007, 56, 765-71; Kelso. E. B., et al. J Pharmacol Exp Ther 2006, 316, 1017-24; and Vergnolle, N. J Immunol 1999, 163, 5064-9). Male Wistar rats (n=3 per group) are used. Briefly, rats are given either 5 or 10 mg/kg of a compound of the present invention (p.o. via gavage in olive oil, approx. 500 μL, weight adjusted). Control animals receive only olive oil (500 μL p.o.). Two hours later, the PAR2 agonist 2-furoyl-LIGRLO (350 μg/paw in saline, 100 μL) is injected into the plantar surface (i.pl.) of the right paw pad using a 30 G needle. The left paw acts as a control, receiving saline only. Paw thickness and width are measured after 30 minutes and hourly using digital calipers (World Precision Instruments, USA) and swelling is calculated in area (mm^2; thickness multiplied by width) and expressed as a percentage change from baseline of each individual paw. Results for exemplary PAR2 ligands 18, 30, 42 and 44 are illustrated in FIG. 9.

[4] = Stability in rat liver homogenate; assay type: in vitro ADME; settings: 10 μM, 37° C., up to 180 minutes
Procedure: Blood and liver is collected form non-drug dosed male and female Wistar rats (aged 8-9 weeks, 200-250 g and 250-300 g respectively). Bloods are centrifuged at 8 K rpm for 5 min. Plasma are pooled and stored at −80° C. for later use. The rat livers are homogenized, diluted with three volumes of PBS, cloth filtered. The filtrate is used directly for stability studies.
Lach compound is dissolved in DMSO to make […] stock solution. 10 μL of the stock is diluted with either rat plasma or liver homogenate (490 μL) to make up a starting concentration of 10 μM (triplicates). The mixtures are vortexed and incubated at 37° C. At each time point of 0, 30, 60 and 180 minutes. 100 μL of the mixture is taken and diluted with 300 μL of acetonitrile. The mixture is vortexed and centrifuged, 350 μL of the liquid is transferred into a microfuge tube and concentrated using a rotational vacuum concentrator (Christ Beta-RVC, supplied by Quantum Scientific). 100 μL of acetonitrile water (9:1, v/v) is added to the residue, vortexed and immediately analysed by LCMS/MS. Data from these experiments are expressed as percent of peak area recorded from the LCMS/MS trace at time zero (t0).

PAR2 [5] = molecular target: T1, PAR2; test: PAR2 agonist inhibition (antagonism) by intracellular Ca2+ release in HT29 cells; assay type: cell-based; set-up: Agonists of Ca^2+ release in HT29 cells; endogenous in cells; host or cells: HT29 (human cell line, cultured per ATCC information); settings: HT29 cells; 30 min pre-incubation, then PAR2 agonist (1 μM 2f-LIGRLO-NH2); read-out: IC50, inhibition of Ca2+ release in HT29 cells
Text: as §1, §2
The cells are prepared as outlined above then treated with the “putative” antagonist 30 min prior to the addition of either trypsin or a synthetic agonist at a concentration equal to the agonists ED80.
The cells were then treated with 1 μM of the PAR2 agonist 2f-LIGRLO-NH2 (FIG. 2A. n=5) or 100 nM Trypsin (FIG. 2B, n=1). Each data point represents mean±SEM. Net changes in fluorescence were calculated as a percentage relative to the maximum response given 1 μM 2f-LIGRLO-NH2 or 100 nM Trypsin. Changes in fluorescence (% response) were plotted against logarithmic compound concentrations. The half maximal inhibitory concentration (IC50) values were derived from the dose response curve using a nonlinear regression curve in Graphpad Prism v5.

[6] = read-out: EC50, agonist or partial agonist of Ca2+ release in HT29 cells
[7] = EC50, agonist or partial agonist of Ca2+ release in HT29 cells

Paw swelling induced by 2-f-LIGRLO-NH2 (PAR2 [3]): reduced the paw swelling
Stability in rat liver homogenate [4]: decomposed to varied degree
IC50 (PAR2 [5]): 1000 nM
Molecule: CO[C@H](C)[C@H](NC(=O)[C@H](CC1CCCCC1)NC(=O)c1ccno1)C(=O)N1CCC2(C=Cc3ccccc32)CC1 [Compound 44, 5-isoxazoyl-Cha-Thr(Me)-spiro[indene-1,4′-piperidine]]

Paw swelling induced by 2-f-LIGRLO-NH2 (PAR2 [3]): reduced the paw swelling
Stability in rat liver homogenate [4]: decomposed to varied degree
Molecule: CC[C@H](C)[C@H](NC(=O)[C@H](CC1CCCCC1)NC(=O)c1cc(N)no1)C(=O)N1CCC2(C=Cc3ccccc32)CC1 [Compound 42, 5-(3-amino-isoxazoyl)-Cha-Ile-spiro[indene-1,4′-piperidine]]

EC50 (PAR2 [1]; [6]): 1.8 µM
Molecule: CC[C@H](C)[C@H](NC(=O)[C@H](CC1CCCCC1)NC(=O)c1ccno1)C(=O)N1CCC2(CC1)CN(S(C)(=O)=O)c1ccccc12 [Compound 13]

EC50 (PAR2 [1]; [7]): 0.76 µM
Molecule: CC[C@H](C)[C@H](NC(=O)[C@H](CC1CCCCC1)NC(=O)c1ccno1)C(=O)N1CCC2(CC1)CC(=O)c1ccccc1O2 [Compound 15]

EC50 (PAR2 [1]; [6]): 5 to 7 µM
Molecule: CC[C@H](C)[C@H](NC(=O)[C@H](CC1CCCCC1)NC(=O)c1ccno1)C(=O)N1CCC2(CC1)c1ccccc1C(O)C2O (stereo partly shown) [Compound 16]

Paw swelling induced by 2-f-LIGRLO-NH2 (PAR2 [3]): reduced the paw swelling
Stability in rat liver homogenate [4]: decomposed to varied degree
IC50 (PAR2 [5]): 500 ± 100 nM
Molecule: CC[C@H](C)[C@H](NC(=O)[C@H](CC1CCCCC1)NC(=O)c1ccno1)C(=O)NCc1ccccc1OC [Compound 18, 5-isoxazoyl-Cha-Ile-aminomethyl-(2-methoxy)phenyl]

EC50 (PAR2 [1]; [6]): 20 µM
Molecule: CC[C@H](C)[C@H](NC(=O)[C@H](CC1CCCCC1)NC(=O)c1ccno1)C(=O)N1CCC2(CC1)c1ccccc1C(NCc1ccc(F)cc1)C2O (stereo partly shown) [Compound 17]

EC50 (PAR2 [1]; [7]): 1.3 µM
Molecule: CC[C@H](C)[C@H](NC(=O)[C@H](CC1CCCCC1)NC(=O)c1ccno1)C(=O)N1CCC2(CC1)OC(=O)c1ccccc12 [Compound 14]

More lines, now with the values behind:

Molecule: CC[C@H](C)[C@H](NC(=O)[C@H](CC1CCCCC1)NC(=O)c1ccno1)C(=O)NCc1ccccc1[N+](=O)[O-] [Compound 9]
EC50 (PAR2 [1]; [6]): 10 µM

Molecule: CC[C@H](C)[C@H](NC(=O)[C@H](CC1CCCCC1)NC(=O)c1ccno1)C(=O)NCc1ccccc1F [Compound 6, 5-isoxazoyl-Cha-Ile-aminomethyl-(2-fluoro)phenyl]
EC50 (PAR2 [1]; [6]): ~30 µM and 30 µM
Emax at 30 µM (PAR2 [1]; HT-29, compound at 30 μM, room temperature, read-out: Response relative to the maximum response given by 100 μM 2f-LIGRLO-NH2): ≤ 50%

Molecule: CC[C@H](C)[C@H](NC(=O)[C@H](CC1CCCCC1)NC(=O)c1ccno1)C(=O)NCc1ccccc1Cl [Compound 5]
EC50 (PAR2 [1]; [6]): 10 µM

Molecule: 2-furoyl-LIGRL-NH2
Selectivity for PAR2 over PAR1 (PAR2 [2]): selective for PAR2 over PAR1
Agonist potency relative to SLIGRL-NH2 (PAR2 [2]; higher agonist potency than SLIGRL-NH2): ~20 fold

Molecule: CC[C@H](C)[C@H](NC(=O)[C@H](CC1CCCCC1)NC(=O)c1ccno1)C(=O)N1CCc2cc(OC)c(OC)cc2C1 [Compound 11]
EC50 (PAR2 [1]; [6]): 5 to 10 µM

Molecule: CC[C@H](C)[C@H](NC(=O)[C@H](CC1CCCCC1)NC(=O)c1ccno1)C(=O)NCc1ccc(F)cc1 [Compound 8]
EC50 (PAR2 [1]; [6]): 40 µM

Molecule: CC[C@H](C)[C@H](NC(=O)[C@H](CC1CCCCC1)NC(=O)c1ccno1)C(=O)NCc1ccccc1 [Compound 3]
EC50 (PAR2 [1]; [6]): 30 µM

Molecule: CC[C@H](C)[C@H](NC(=O)[C@H](CC1CCCCC1)NC(=O)c1ccno1)C(=O)N1CCC(NC(C)=O)(c2ccccc2)CC1 [Compound 12]
EC50 (PAR2 [1]; [6]): 1 to 6 µM

Molecule: CC[C@H](C)[C@H](NC(=O)[C@H](CC1CCCCC1)NC(=O)c1ccno1)C(=O)NCc1cccc(F)c1 [Compound 7]
EC50 (PAR2 [1]; [6]): 40 µM

Molecule: CC[C@H](C)[C@H](NC(=O)[C@H](CC1CCCCC1)NC(=O)c1ccno1)C(=O)N1CCC(c2ccccc2)CC1 [Compound 30, 5-isoxazoyl-Cha-Ile-(4-phenyl)piperidine]
Paw swelling induced by 2-f-LIGRLO-NH2 (PAR2 [3]): reduced the paw swelling
Stability in rat liver homogenate [4]: decomposed to varied degree

Molecule: CC[C@H](C)[C@H](NC(=O)[C@H](CC1CCCCC1)NC(=O)c1ccno1)C(=O)NCc1ccc(OC)cc1 [Compound 4]
EC50 (PAR2 [1]; [6]): 10 µM

Molecule: CC[C@H](C)[C@H](NC(=O)[C@H](CC1CCCCC1)NC(=O)c1ccno1)C(=O)N1CCN(c2ccc(F)cc2)CC1 [Compound 10]
EC50 (PAR2 [1]; [6]): 10 µM
